Measured values: patent US11291620B2, “Avobenzone-dendrimer conjugates” (NEW YORK UNIVERSITY, priority 2018, dated 2022)

How the values were obtained:
[1] = UV-Vis calibration: molar attenuation coefficient at 357 nM in isopropanol; format: physicochemical; details: run in triplicate, per mole of compound or dendrimer conjugate
Text: Avobenzone and the avobenzone conjugates were each dissolved in isopropanol and the titrations were run in triplicate to calculate extinction coefficients for each conjugate.
UV analysis was run on each conjugate to test the absorbance and degradation profile of each compound. The linker and scaffold must not shift the UV absorbance profile of the avobenzone if it is to be used as an additive in sunscreen formulations. Otherwise, it might no longer be active as a UV-A filter. UV calibrations were run for free avobenzone, avobenzone with linker, and each class and generation of dendrimer-avobenzone conjugate to compare the modified molecules to the original under the same conditions.
The molar attenuation coefficient for each compound was calculated at 357 nM, the absorption maximum in the UVA-1 range. […] Additionally, no shift was observed after ligation to the dendrimer scaffolds.
Extinction coefficient curves were taken in isopropanol, a protic solvent known to stabilize avobenzone under UV irradiation, allowing the curve to be run on a single sample of avobenzone per curve without loss of activity (Mturi et al., J. Phoochem. Pholobiol. 200:410-20 (2008), which is hereby incorporated by reference in its entirety).

[2] = UV decay / UV stability: change of absorbance under UV lamp over four hours; format: physicochemical; details: ethyl acetate, UV lamp 365 nM, peak at 357 nm, triplicate, average
Text: Avobenzone and the avobenzone conjugates were each dissolved in ethyl acetate, unless otherwise noted, and sealed in airtight quartz cuvettes. […] The avobenzone decay curves were run in triplicate and extra decay curves run in duplicate. UV stability experiments were run in triplicate in ethyl acetate (Mturi et al., J. Photochem. […] Unlike isopropanol, this solvent is known to encourage degradation and was chosen so that the experimental time scales would be similar to the time scale of sun exposure in vivo. Due to FDA regulations, all commercial sunscreens are labeled with instructions to reapply every two hours. The avobenzone systems were tested over four hours, double that time. The avobenzone, avobenzone linker, or avobenzone-dendrimer conjugate was dissolved in a small amount of isopropanol. In each study 90 μL of the stock solution was added to 3 mL of ethyl acetate and sealed in an airtight quartz cuvette. The initial absorptions were measured and the samples were sealed in quartz cuvettes and left under a UV lamp emitting at 365 nM. The absorption profile was measured at regular intervals.

SMILES | molar attenuation coefficient (for the compound / conjugate) [1] | final absorbance as % of the initial absorbance [2] [%]
COc1ccc(C(=O)CC(=O)c2ccc(C(C)(C)C)cc2)cc1 [bare avobenzone, 4-Tert-butyl-4′-methoxydibenzoylmethane] | 1,039 M^−1 cm^−1 | 90.7±1.4
COc1ccc(C(=O)C(CCCCCCCCCCCO)C(=O)c2ccc(C(C)(C)C)cc2)cc1 (stereo not shown) [avobenzone with linker] | 2,899 M^−1 cm^−1 | 108±1.8
